# Measurements as given in BindingDB's records for doi:10.1111/j.1476-5381.1995.tb15071.x (Vrije Universiteit, 1995).
# Molecular target: Sodium-dependent serotonin transporter (Cavia porcellus, UniProt O35899)
# Sequence (O35899 whole entry): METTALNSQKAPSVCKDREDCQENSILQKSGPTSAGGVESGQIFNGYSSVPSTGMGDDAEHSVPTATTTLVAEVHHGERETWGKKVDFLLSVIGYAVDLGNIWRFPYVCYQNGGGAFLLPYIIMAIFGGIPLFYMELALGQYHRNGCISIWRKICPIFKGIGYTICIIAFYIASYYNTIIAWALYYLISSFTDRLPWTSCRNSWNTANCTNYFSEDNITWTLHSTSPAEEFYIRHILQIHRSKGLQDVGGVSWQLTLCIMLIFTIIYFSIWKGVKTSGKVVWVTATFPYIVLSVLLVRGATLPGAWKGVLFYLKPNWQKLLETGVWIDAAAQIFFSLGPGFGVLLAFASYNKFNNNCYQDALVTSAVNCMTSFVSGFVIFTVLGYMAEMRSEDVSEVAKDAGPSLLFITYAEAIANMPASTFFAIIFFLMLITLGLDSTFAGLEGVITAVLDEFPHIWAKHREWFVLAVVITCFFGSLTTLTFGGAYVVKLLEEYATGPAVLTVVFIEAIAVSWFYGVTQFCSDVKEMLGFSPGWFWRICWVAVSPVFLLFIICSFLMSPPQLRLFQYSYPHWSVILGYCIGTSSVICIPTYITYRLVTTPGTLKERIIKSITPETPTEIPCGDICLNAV
compound,measurement,value
S=C(NC1CCCCC1)N1CCC(c2cnc[nH]2)CC1,Ki,> 10 µM
